Results from patent US9101634B2, “Application of 2, 3-dihydro-3-hydroxymethyl-6-amino-[1,4]-benzoxazine in preparation of drugs inducing embryonic stem cells to differentiate to vascular endothelial cells” (SHANDONG UNIVERSITY, priority 2010, dated 2015).
“Also recorded” adds a separate entry of the source.

How the values were obtained:
embryonic stem cells [1] = assay: Detection of in vitro vascularization on Matrigel; assay type: cell-based, mouse; settings: cells induced for ten days
Description: The embryonic stem cells after induction for ten days were seeded in 24-well cell culture plate paved with Matrigel in advance, the detection culture system was replaced for the cells and placed at 37° C., the cells were cultured at CO2 incubator for 4 hours to 72 hours, and the vascularization conditions were regularly observed. The normal group was set: embryonic stem cells which were cultured for ten days under the culture conditions of differentiation culture medium; solvent control group: embryonic stem cells which were cultured for ten days after DMSO was added under the culture condition of differentiation culture medium. Experimental group: embryonic stem cells which were cultured for ten days after 2,3-dihydro-3-hydroxymethyl-6-amino-[1,4]-benzoxazine was added under the culture condition of differentiation culture medium.
The embryonic stem cells were evenly grown in a 24-well plate according to the density of 2×10^4 cells/well and cultured for 24 hours with DMEM (high glucose) containing leukemia inhibitory factor, L-glutamine, streptomycin, β-mercaptoethanol, non-essential amino acids, nucleotides and 15% FBS, the waste liquid was discarded after the cells adhered on the wall, and the cells were cleaned with 1×PBS. […]

[2] = test system: mouse embryonic stem cells; assay: Induction of mouse embryonic stem cells to differentiate to vascular endothelial cells (overall conclusion); assay type: cell-based; settings: for differentiation of mouse embryonic stem cells to vascular endothelial cells: five to ten days, differentiation culture medium
Source text: Cell biology and molecular biology methods were adopted to study and validate the function of the 2,3-dihydro-3-hydroxymethyl-6-amino-[1,4]-benzoxazine of the invention to induce embryonic stem cells to differentiate to vascular endothelial cells with the following experiments.

[3] = test system: mouse embryonic stem cells; assay: Influence on mouse embryonic stem cell morphology (inverted phase contrast microscope); assay type: cell-based; settings: ten days
Description: The embryonic stem cells were evenly grown in a 24-well plate, a normal group was set after the cells adhered on the wall: the normal group was cultured under the condition of differentiation culture medium (after removal of leukemia inhibitory factor from normal culture medium); solvent control group: the group was cultured after DMSO was added under the culture condition of differentiation culture medium; experimental group: the group was cultured after 2,3-dihydro-3-hydroxymethyl-6-amino-[1,4]-benzoxazine with the concentration of 0.5 μM˜40 μM was added under the culture condition of differentiation culture medium. The culture conditions: 37° C., CO2 incubator box for cultivation. The culture medium should be replaced everyday in a timing mode, the morphological changes were observed under an inverted phase contrast microscope until the tenth day.
(§1) The embryonic stem cells were evenly grown in a 24-well plate according to density of 2×10^4 cells/well, DMEM (high glucose) containing leukemia inhibitory factor, L-glutamine, streptomycin, β-mercaptoethanol, non-essential amino acids, nucleotides and 15% PBS was used for culturing for 24 hours, the waste liquid was discarded after the cells adhered on the wall, and the cells were cleaned with 1×PBS. A normal group was set: the normal group was cultured under the culture condition that leukemia inhibitory factor was removed; solvent control group: the group was cultured after DMSO was added under the culture condition that leukemia inhibitory factor was removed; experimental group: the group was cultured after 2,3-dihydro-3-hydroxymethyl-6-amino-[1,4]-benzoxazine with the concentration of 0.5 μM, 1 μM, 5 μM, 10 μM, 20 μM, 30 μM and 40 μM was added under the culture condition that leukemia inhibitory factor was removed. The culture conditions: 37° C., CO2 incubator box for cultivation. The culture medium should be replaced everyday in a timing mode, and the cells were continuously cultured for ten days and then were observed under an inverted phase contrast microscope.

embryonic stem cells [4] = assay: Function detection of phagocytosis of Dil-Ac-LDL; assay type: cell-based, mouse; settings: cells induced for ten days, six hours with Dil-Ac-LDL
Description: The embryonic stem cells after induction for ten days were seeded in 24-well paved with gelatin, placed at 37° C., and cultured in CO2 incubator. After the cells adhered on the wall, the Dil-Ac-LDL diluted with medium culture was added into the culture plates, placed at 37° C., and cultured in CO2 incubator for six hours. The normal group was set: embryonic stem cells which were cultured for ten days under the culture condition of differentiation culture medium; Solvent control group: the embryonic stem cells which were cultured for ten days after DMSO was added under the culture condition of differentiation culture medium; experimental group: the embryonic stem cells which were cultured for ten days after 2,3-dihydro-3-hydroxy methyl-6-amino-[1,4]-benzoxazine with the concentration of 0.5 μM˜40 μM was added under the culture condition of differentiation culture medium. […]
The embryonic stem cells were evenly grown in a 24-well plate according to the density of 2×10^4 cells/well and cultured for 24 hours with DMEM (high glucose) containing leukemia inhibitory factor, L-glutamine, streptomycin, β-mercaptoethanol, non-essential amino acids, nucleotides and 15% FBS, the waste liquid was discarded after the cells adhered on the wall, and the cells were cleaned with 1×PBS. […] The conditions of phagocytosing Dil-Ac-LDL were detected with laser confocal microscopy.

[5] = test system: vascular endothelial marker CD31 in embryonic stem cells; assay: Detection of vascular endothelial cell marker CD31 (Western blot); assay type: cell-based, mouse; settings: induction for 10 days
Description: The embryonic stem cells induced by 2,3-dihydro-3-hydroxymethyl-6-amino-[1,4]-benzoxazine with the concentration of 0.5 μM˜40 μM for ten days were cracked, and total cellular protein was distilled. The solvent control group was set: the group was cultured after DMSO was added under the culture condition of differentiation culture medium; experimental group: the group was cultured after 2,3-dihydro-3-(hydroxymethyl)-6-Amino-[1,4]-benzoxazine with the concentration of 0.5 μM˜40 μM under the culture condition of differentiation culture medium. The extracted embryonic stem cells were used for Western blot experiment to detect the expression of vascular endothelial marker CD31.
The embryonic stem cells were evenly grown in a 6-well plate according to the density of 2×10^4 cells/well, and cultured for 24 hours with DMEM (high glucose) containing leukemia inhibitory factor, L-glutamine, streptomycin, β-mercaptoethanol, non-essential amino acids, nucleotides and 15% FBS, the waste liquid was discarded after the cells adhered on the wall, and the cells were cleaned with 1×PBS. The normal group was set: the group was cultured under the culture condition that leukemia inhibitory factor was removed; solvent control group: the group was cultured after DMSO was added under the culture condition that leukemia inhibitory factor was removed; experimental group: the group was cultured after 2,3-dihydro-3-hydroxymethyl-6-amino-[1,4]-benzoxazine with the concentration of 0.5 μM, 1 μM, 5 μM, 10 μM, 20 μM, 30 μM and 40 μM was added under the culture condition that leukemia inhibitory factor was removed. The culture conditions: 37° C., CO2 incubator box for cultivation. The culture medium should be replaced everyday, and the cells should be continuously cultured for ten days. The total protein of each group of cells was distilled with cell lysate. The protein samples were denatured for 5 min at 100° C., glue was removed then, the protein was transferred on the PVDF film after completion, the PBS/t solution containing 5% skimmed milk powder was used for sealing for one hour at room temperature. The PBS/t solution containing 3% bovine serum almbumin was used for diluting the primary anti-body (1:5000), and incubated overnight with the PVDF film containing target protein at 4° C. PBS/t was used for dipping the film twice 5 min each time. PBS was used for diluting the secondary antibody (1:5000) and the cells were incubated for one hour at room temperature, the film was dipped with PSB for three times and 5 min each time. ECL chromogenic reagent was evenly coated on the PVDF film containing target protein ad reacted for five minutes, excessive Chromogenic reagent was removed, and the cells were placed together with the film in a dark box for five minutes to finish film colour development.

[6] = test system: vascular endothelial cell marker Flk-1 in embryonic stem cells; assay: Detection of vascular endothelial cell marker Flk-1 (immunohistochemistry, laser scanning confocal microscopy); assay type: cell-based, mouse; settings: induction for 10 days
Description: The embryonic stem cells which were induced with 2,3-dihydro-3-hydroxymethyl-6-amino-[1,4]-benzoxazine with the concentration of 0.5 μM˜40 μM for 5 days and 10 days were evenly grown in 48-well plate and cultured for 24 hours in CO2 incubation chamber at 37° C., after the cells adhered on the wall, immunohistochemistry and laser scanning confocal microscopy were used for observing the expression of endothelial cell markers—Flk-1 The normal group was set: the group was cultured in under the culture condition of differentiation culture medium; solvent control group: the group was cultured after DMSO was added under the culture condition of differentiation culture medium; experimental group: the group was cultured after 2,3-dihydro-3-hydroxymethyl-6-amino-[1,4]-benzoxazine with the concentration of 0.5 μM˜40 μM was added under the culture condition of differentiation culture medium.
as §1, with “48-well” for “24-well”, “and cultured for 24 hours with” for “according to density of 2×10^4 cells/well,”, “FBS,” for “PBS was used for culturing for 24 hours,”, “The” for “A”, “the” for “the normal”, “cultivation.” for “cultivation. The culture medium should be replaced everyday in a timing mode, and the cells were continuously cultured for ten days and then were observed under an inverted phase contrast microscope.”

[7] = 10 μM, listed as 2 3-dihydro-3-hydroxymethyl-6-amino-[1,4]-benzoxazine

Structure (SMILES): Nc1ccc2c(c1)NC(CO)CO2 (centres unmarked) [2,3-dihydro-3-hydroxymethyl-6-amino-[1,4]-benzoxazine]
- formation of vessel-like structures on Matrigel (embryonic stem cells [1]; 10 μM): particularly prominent vessel-like structures; also recorded: prominently form blood vessels in vitro; also recorded: prominently form blood vessels on Matrigel
- formation of vessel-like structures on Matrigel (embryonic stem cells [1]; 1˜20 μM): form varying degrees of cavity-like vessel-like structures
- optimal concentration for inducing differentiation to vascular endothelial cells [2]: 10 µM
- differentiation of mouse embryonic stem cells to vascular endothelial cells ([2]; 1 μM˜20 μM): prominently promote differentiation of mouse embryonic stem cells to vascular endothelial cells
- differentiation of mouse embryonic stem cells to vascular endothelial cells ([2]; 10 μM): particularly prominent
- cell morphology change to vascular endothelial cell form ([3]; 10 μM, differentiation culture medium without leukemia inhibitory factor): significant changes; also recorded: prominently prompt the embryonic stem cells to show the vascular endothelial form
- cell morphology change versus normal and solvent control groups ([3]; 1˜20 μM, differentiation culture medium without leukemia inhibitory factor): changed compared with the cell morphology of the control group; also recorded: changed compared with the cell form of the control group
- cell form changes of other treatment groups ([3]; other concentrations of the 0.5 μM˜40 μM range (outside 1˜20 μM)): relatively weak
- phagocytosis of Dil-Ac-LDL (embryonic stem cells [4]; 1 μM˜20 μM): can phagocytose Dil-Ac-LDL
- phagocytosis of Dil-Ac-LDL (embryonic stem cells [4]; 10 μM): particularly evident; also recorded: prominent effect of phagocytosing Dil-Ac-LDL; also recorded: prominently phagocytose Dil-Ac-LDL
- expression of vascular endothelial cell marker CD31 ([5]; 1 μM˜20 μM, versus solvent control, listed as 2 3-dihydro-3-hydroxymethyl-6-amino-[1,4]-benzoxazine): increased
- expression of vascular endothelial cell marker CD31 ([5]; 1 μM˜20 μM, versus solvent control, listed as 2,3-dihydro-3-(hydroxymethyl)-6-amino-[1,4]-benzoxazine): increased expression of CD31
- expression of vascular endothelial cell marker CD31 ([5]; 10 μM): more significant
- expression of vascular endothelial cell marker CD31 [5, 7]: stronger CD31 expression
- expression of vascular endothelial cell marker Flk-1 ([6]; 1 μM˜20 μM): increased
- expression of vascular endothelial cell marker Flk-1 ([6]; 10 μM): more obvious
- expression of vascular endothelial cell marker Flk-1 [6, 7]: stronger Flk-1 expression
